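Assay format: 96-well plates, 48-hour exposure. GI50 is the concentration that inhibits growth by half. TGI: total growth inhibition.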
Legend:
Experiment in all cases: inhibition of tumour cell growth, NCI panel, 48 h
[1] = system: A498 renal
[2] = system: ACHN renal
[3] = system: EKVX NSCLC
[4] = system: OVCAR-3 ovarian
[5] = system: PC-3 prostate
[6] = system: RPMI-8226 leukemia
[7] = system: RXF 393 renal
[8] = system: SF-268 CNS
[9] = system: SW-620 colon
[10] = system: HOP-92 NSCLC

Compound | GI50 [1] | TGI [1] | GI50 [2] | TGI [2] | GI50 [3] | TGI [3] | GI50 [4] | TGI [4] | GI50 [5] | TGI [5] | GI50 [6] [µM] | TGI [6] [µM] | GI50 [7] | TGI [7] | GI50 [8] | TGI [8] | GI50 [9] | TGI [9] | TGI [10] | GI50 [10]
CCCCCO/N=C\c1c2c(O)c3c(O)c(C)c4c(c3c1O)C(=O)C(C)(O/C=C\C(OC)C(C)C(OC(C)=O)C(C)C(O)C(C)C(O)C(C)/C=C\C=C(\C)C(=O)N2)O4 (stereo unspecified) | 1.64 µM | 3.16 µM | 1.8 µM | 3.33 µM | 2.09 µM | 6.95 µM | 1.5 µM | 2.82 µM | 1.65 µM | 4.5 µM | 2.34 | 6.69 | 1.71 µM | 3.1 µM | 1.66 µM | 3.23 µM | 1.68 µM | 3.04 µM | – | –
CC1OC(OC2C(O)CC(OC3C(O)CC(OC4CCC5(C)C(CCC6C5CC(O)C5(C)C(C7=CC(=O)OC7)CCC65O)C4)OC3C)OC2C)CC(O)C1O (stereo unspecified) | 0.107 µM | 0.544 µM | 0.0358 µM | 0.126 µM | 0.0351 µM | 0.121 µM | 0.033 µM | 0.113 µM | 0.0543 µM | 0.538 µM | 0.0921 | – | 0.0293 µM | 0.0994 µM | 0.0359 µM | 0.133 µM | 0.0423 µM | 0.165 µM | – | –
Cc1ccc(S(=O)(=O)N/N=C(/CC(=O)c2c(C)n([O-])c3ccccc3[n+]2=O)C(=O)Nc2ccccc2C)cc1 | – | > 100 µM | – | > 100 µM | – | > 100 µM | – | > 100 µM | – | – | – | > 100 | – | > 100 µM | – | > 100 µM | – | > 100 µM | > 100 µM | –
O=C1c2sccc2-c2cccc3cccc1c23 (tested in a mixture with another compound) | – | – | – | 12.2 µM | – | 0.105 µM | – | 67.8 µM | – | 31.6 µM | – | 0.668 | – | > 100 µM | – | > 100 µM | – | 17.2 µM | – | –
COc1ccc(N(CC(=O)NCCC[Te]c2ccccc2)C(=O)CNC(=O)OC(C)(C)C)cc1 | 2.28 µM | 5.35 µM | 3.12 µM | 8.86 µM | 0.343 µM | 2.35 µM | 3 µM | 7.88 µM | 1.72 µM | 10.1 µM | 2.4 | 7.3 | – | – | 2.7 µM | 7.56 µM | 3.44 µM | 14.4 µM | 4.94 µM | 2.36 µM
CC1(C)CC(=O)C2=C(C1)OC(N)=C(c1nc(-c3ccccc3)cs1)C2c1ccc(Br)cc1 (stereo unspecified) | 66.6 mg/L | > 150 mg/L | 61.5 mg/L | > 150 mg/L | 64.5 mg/L | > 150 mg/L | 59.7 mg/L | > 150 mg/L | 50.9 mg/L | > 150 mg/L | – | – | 42.5 mg/L | 126 mg/L | 121 mg/L | > 150 mg/L | 86 mg/L | > 150 mg/L | 126 mg/L | 33.2 mg/L
COCOCC/C=C/C=O | – | > 100 µM | – | > 100 µM | – | > 100 µM | – | > 100 µM | – | – | – | > 100 | – | > 100 µM | – | > 100 µM | – | > 100 µM | > 100 µM | –
CC(=O)OCCOCNC(=S)N/N=C/c1cc(Br)cs1 | – | > 100 µM | – | > 100 µM | – | > 100 µM | – | > 100 µM | – | – | – | > 100 | – | > 100 µM | – | > 100 µM | – | > 100 µM | – | –
O=C(O)CCC(=O)c1ccc2sc3ccccc3c2c1 | – | > 100 µM | – | > 100 µM | – | > 100 µM | – | > 100 µM | – | > 100 µM | – | > 100 | – | > 100 µM | – | > 100 µM | – | > 100 µM | – | –
O=C(c1nc2ccccc2[nH]c1=O)C(O)c1ccccc1 (stereo unspecified) | – | 99.6 µM | – | > 100 µM | – | > 100 µM | – | > 100 µM | – | – | – | > 100 | – | – | – | > 100 µM | – | > 100 µM | > 100 µM | –
COC(=O)c1cc2c(cc1Cl)SC1=NN(C)C(N(C)C)N1S2(=O)=O (stereo unspecified) | > 100 µM | > 100 µM | > 100 µM | > 100 µM | > 100 µM | > 100 µM | > 100 µM | > 100 µM | > 100 µM | > 100 µM | > 100 | > 100 | – | – | > 100 µM | > 100 µM | > 100 µM | > 100 µM | > 100 µM | > 100 µM
Cc1ccc(C)c(N2C(=O)C(=O)C(c3nc4ccccc4s3)/C(=N/NC(=O)NN)C2=O)c1 (stereo unspecified) | – | > 100 µM | – | > 100 µM | – | > 100 µM | – | > 100 µM | – | – | – | – | – | > 100 µM | – | > 100 µM | – | > 100 µM | > 100 µM | –
C=C1CCC2[C@@H](CCC3[C@]2(C)CCC[C@]3(C)C(=O)OC)C1CC=O (stereo partly specified) | 17.2 µM | 31.9 µM | – | 30 µM | – | 36 µM | – | 27.7 µM | – | – | 8.28 | 33.4 | – | – | – | 35.1 µM | – | 35 µM | 27.8 µM | –
COc1ccc(-c2cc(C(=O)Nc3ccc(C)c(C)c3)nc(NC#N)n2)cc1 | – | > 100 µM | – | > 100 µM | – | > 100 µM | – | > 100 µM | – | – | – | > 100 | – | > 100 µM | – | > 100 µM | – | > 100 µM | – | –
CC1(c2ccccc2Cl)C(C#N)C(=O)NC(=O)C1C#N (stereo unspecified) | – | > 100 µM | – | > 100 µM | – | > 100 µM | – | 46.7 µM | – | – | – | 59.6 | – | > 100 µM | – | > 100 µM | – | > 100 µM | 59.8 µM | –
COc1cc2c(cc1OC)-c1ncc3c(OC)c(OC)c(OC)cc3c1C2 | – | – | 16.7 µM | 43.8 µM | – | – | 0.529 µM | 9.91 µM | > 100 µM | > 100 µM | 2.5 | 32.3 | – | – | 4.97 µM | 16.5 µM | 34.2 µM | > 100 µM | > 100 µM | 58.5 µM
COCCNC(=O)C1C(=O)C(=O)N(CCOC)C1=O (stereo unspecified) | – | > 100 µM | – | > 100 µM | – | > 100 µM | – | > 100 µM | – | – | – | – | – | > 100 µM | – | > 100 µM | – | > 100 µM | > 100 µM | –
Cc1nc(C(=O)O)c2ccccc2n1 | – | > 100 µM | – | > 100 µM | – | – | – | > 100 µM | – | – | – | > 100 | – | > 100 µM | – | > 100 µM | – | > 100 µM | > 100 µM | –
CCCCC1(C)C=C/C(=C2/C(=O)O/C(=C\C(=O)O)C2=O)O1 (stereo unspecified) | – | > 100 µM | – | > 100 µM | – | > 100 µM | – | > 100 µM | – | – | – | > 100 | – | – | – | – | – | > 100 µM | – | –

— PubChem BioAssay (NCI)
